Source: patent US11352352B2, “Aminopyrimidine compound, preparation method therefor and use thereof” (BEIJING ADAMADLE BIOTECHNOLOGY LIMITED LIABILITY COMPANY, priority 2017, dated 2022)

How the values were obtained:
Test in all cases: Cell proliferation inhibition experiment, CellTiter-Glo (CTG) method
Format in all cases: cell-based
A-431 = details: Homo sapiens, A-431, 72 h, A-431 cells, 3 days
Method: (§1) Cell Proliferation Inhibition Experiment
(§2) Compounds were tested in the selected cell lines, and solvent is set as control, nine concentrations were detected with three parallel wells for each concentration.
(§3) 2. Reagents and Materials • 1) fetal bovine serum FBS (GIBCO, Cat #10099-141) • 2) CellTiter-Glo® Luminescent Cell Viability Assay (Promega, Cat #G7572) • 3) 96-well plate with flat clear bottom, black wall plates (Corning®, Cat #3340)
(§4) The first day: Incubation and plant of cells • 1) Cells in logarithmic growth phase were harvested and counted by cell counter. Cell viability was detected by trypan blue exclusion assay to ensure that the viability of each cell line was above 90%. • 2) Cell concentration was adjusted by diluting complete culture medium, and 90 μL cell suspension was added to a 96-well plate (T0 plate and drug plate to be tested) to make the cell density reach the specified concentration. • 3) Cells in 96-well plate were incubated overnight at condition of 37° C., 5% CO2 and 95% humidity.
(§5) The second day: Reading T0 plate • 1) 10 μL culture medium was added to T0 plate. • 2) CTG reagent was melt, while the cell plate was balanced to room temperature for 30 minutes. • 3) The same volume of CTG solution was added to each well. • 4) The cell plate was vibrated for 2 minutes on an orbital shaker to lyze the cells. • 5) The cell plate was placed at room temperature for 10 minutes to stabilize the cold light signal. • 6) The cold light value was read with EnVision.
Drug Addition • 1) Drug dilution. The compounds to be tested were dissolved and packaged, then a gradient elution was performed to obtain a solution diluted 10 times. • 2) Drug addition. […] drug solution was added into each well of the 96-well plate, which was inoculated cells, three parallel wells were set for each cell concentration. The highest concentration of the compounds to be tested on A-431 was 30 μM, nine concentrations was set with 3 times dilution; while the highest concentration on NCI-H1975 and PC-9 was 1.111 μM, 9 concentrations was set with 3 times dilution. • 3) Culture. Cells in 96-well plates in which drugs have been added were cultured at condition of 37° C., 5% CO2 and 95% humidity for 3 days, and then CTG assay was performed respectively.
(§6) The third day: reading plate at the terminal • 1) CTG reagent was melt, while the cell plate was balanced to room temperature for 30 minutes. • 2) The same volume of CTG solution was added to each well. • 3) The cell plate was vibrated for 2 minutes on an orbital shaker to lyze the cells. • 4) The cell plate was placed at room temperature for 10 minutes to stabilize the cold light signal. • 5) The cold light value was read with EnVision
(§7) Data were analyzed using GraphPad Prism 5.0 software, and non-linear S curve regression was used for fitting the data to give a dose-effect curve, IC50 value was calculated accordingly. Cell Survival Rate (%)=(Lumdrugs−Lumcontrol)/(Lumcell−Lumcontrol)×100%.

NCI-H1975 = details: for IC50: Homo sapiens, NCI-H1975, 72 h, NCI-H1975 cells, CTG, 3 days; for A-431/NCI-H1975 Selectivity: ratio of A-431 IC50 to NCI-H1975 IC50
Method: as §1, §2, §3, §4, §5
(§8) Drug Addition • 1) Drug dilution. The compounds to be tested were dissolved and packaged, then a gradient elution was performed to obtain a solution diluted 10 times. • 2) Drug addition. […] drug solution was added into each well of the 96-well plate, which was inoculated cells, three parallel wells were set for each cell concentration.
as §6, §7

PC-9 = details: Homo sapiens, PC-9, 72 h, PC-9 cells, 3 days
Method: as §1, §2, §3, §4, §5, §8, §6, §7

SMILES	IC50 (A-431)	IC50 (NCI-H1975)	IC50 (PC-9)	A-431/NCI-H1975 Selectivity (NCI-H1975)
C=CC(=O)Nc1cc(Nc2cc(-c3ccc4c(cnn4C)c3)ncn2)c(OC)cc1N(C)CCN(C)C [compound 1]	890 nM	4.7 nM	5.6 nM	
C=CC(=O)Nc1cc(Nc2cc(-c3ccc4cnn(C)c4c3)ncn2)c(OC)cc1N(C)CCN(C)C [compound 2]	362 nM	6.6 nM	4.4 nM	
C=CC(=O)Nc1cc(Nc2cc(-c3cc(C(F)(F)F)c4c(cnn4C)c3)ncn2)c(OC)cc1N(C)CCN(C)C [compound 4]	514 nM	15.1 nM	10.1 nM	34.0
C=CC(=O)Nc1cc(Nc2cc(-c3cc4cnn(C)c4cc3F)ncn2)c(OC)cc1N(C)CCN(C)C [compound 5]	302 nM	5.6 nM	3.9 nM	
C=CC(=O)Nc1cc(Nc2cc(-c3cc(F)c4c(cnn4C)c3)ncn2)c(OC)cc1N(C)CCN(C)C [compound 6]	1720 nM	32.1 nM	19.4 nM	53.7
C=CC(=O)Nc1cc(Nc2cc(-c3ccc4nn(C)cc4c3)ncn2)c(OC)cc1N(C)CCN(C)C [compound 7]	129 nM	11.1 nM	10.7 nM	11.6
C=CC(=O)Nc1cc(Nc2cc(-c3ccc4ncsc4c3)ncn2)c(OC)cc1N1CCN(C)CC1 [compound 9]	767 nM	52.6 nM	36.2 nM	14.6
C=CC(=O)Nc1cc(Nc2cc(-c3ccc4c(cnn4C)c3)ncn2)c(OC)cc1N1CC(N(C)C)C1 [compound 10]	1990 nM	47.3 nM	27.7 nM	42.0
C=CC(=O)Nc1cc(Nc2cc(-c3ccc4c(cnn4C)c3)ncn2)c(OC)cc1C1CCN(C)CC1 [compound 11]	2140 nM	67.4 nM	21.8 nM	31.7
C=CC(=O)Nc1cc(Nc2cc(-c3ccc4c(cnn4C)c3)ncn2)c(OC)cc1C(=O)N1CCN(C)CC1 [compound 12]	4130 nM	53.1 nM	56.9 nM	77.7
C=CC(=O)Nc1c(N(C)CCN(C)C)cc(OC)c(Nc2cc(-c3ccc4c(cnn4C)c3)ncn2)c1F [compound 13]	770 nM	1.8 nM	8.6 nM	
C=CC(=O)Nc1cc(Nc2cc(-c3ccc4c(cnn4CC)c3)ncn2)c(OC)cc1N(C)CCN(C)C [compound 14]	1150 nM	6.1 nM	5.9 nM	188.0
C=CC(=O)Nc1cc(Nc2cc(-c3ccc4c(cnn4C(C)C)c3)ncn2)c(OC)cc1N(C)CCN(C)C [compound 15]	1290 nM	21.6 nM	12.7 nM	59.7
C=CC(=O)Nc1cc(Nc2nccc(-c3ccc4cnn(C)c4c3)n2)c(OC)cc1N(C)CCN(C)C [compound 16]	1550 nM	57 nM	40.5 nM	27.1
C=CC(=O)Nc1cc(Nc2nccc(-c3ccc4cnn(C(C)C)c4c3)n2)c(OC)cc1N(C)CCN(C)C [compound 17]	1250 nM	22.2 nM	16.9 nM	56.2
C=CC(=O)Nc1cc(Nc2cc(-c3ccc4c(cnn4C)c3)ncn2)c(OC)cc1N1CCN(CC)CC1 [compound 18]	983 nM	11.1 nM	8.9 nM	88.8
C=CC(=O)Nc1cc(Nc2cc(-c3ccc4c(cnn4C)c3)ncn2)c(OC)cc1N1CCN(C(C)C)CC1 [compound 19]	850 nM	18.1 nM	10.7 nM	47.0
C=CC(=O)Nc1cc(Nc2cc(-c3ccc4c(cnn4C)c3)ncn2)c(OC)cc1N1CCN(C(C)=O)CC1 [compound 20]	1570 nM	46.1 nM	24.9 nM	33.9
C=CC(=O)Nc1cc(Nc2cc(-c3ccc4c(cnn4C)c3)ncn2)c(OC)cc1N1CCN(C)C[C@H]1C [compound 21]	2770 nM	46.4 nM	29.6 nM	59.7
C=CC(=O)Nc1cc(Nc2cc(-c3ccc4c(cnn4C)c3)ncn2)c(OC)cc1N1CCN(C)C(C)C1 (stereo not drawn) [compound 22]	1060 nM	18.1 nM	13.4 nM	58.3
C=CC(=O)Nc1cc(Nc2cc(-c3ccc4c(cnn4C)c3)ncn2)c(OC)cc1N1C[C@@H]2C[C@H]1CN2C [compound 25]	736 nM	54.7 nM	67.8 nM	13.5
C=CC(=O)Nc1cc(Nc2cc(-c3ccc4c(cnn4C)c3)ncn2)c(OC)cc1N1CCN(CC)[C@@H](C)C1 [compound 28]	1430 nM	32.3 nM	19.6 nM	44.2
C=CC(=O)Nc1cc(Nc2cc(-c3ccc4c(cnn4C)c3)ncn2)c(OC)cc1N1CCN(CC)[C@H](C)C1 [compound 29]	1810 nM	55.7 nM	79.9 nM	32.6
C=CC(=O)Nc1cc(Nc2cc(-c3ccc4c(cnn4C)c3)ncn2)c(OC)cc1N1CCN(C)[C@@H](C)C1 [compound 30]	1350 nM	32.4 nM	24.7 nM	41.8
C=CC(=O)Nc1cc(Nc2cc(-c3ccc4c(cnn4C)c3)ncn2)c(OC)cc1N1CCN(C)[C@H](C)C1 [compound 31]	1580 nM	52.7 nM	45.6 nM	29.9
C=CC(=O)Nc1cc(Nc2cc(-c3ccc4c(cnn4C)c3)ncn2)c(OC)cc1N1CCN(CC(F)(F)F)CC1 [compound 32]	9330 nM	186 nM	10.9 nM	50.1
C=CC(=O)Nc1cc(Nc2cc(-c3ccc4c(cnn4C)c3)ncn2)c(OC)cc1N(C)C1CCN(C)CC1 [compound 35]	1590 nM	13.2 nM	16.4 nM	
C=CC(=O)Nc1cc(Nc2cc(-c3ccc4c(cnn4C)c3)ncn2)c(OC)cc1N(C)C1CCN(C)C1 (stereo not drawn) [compound 57]	1420 nM	13.3 nM		
C=CC(=O)Nc1cc(Nc2cc(-c3ccc4c(cnn4C)c3)ncn2)c(OC)cc1N(C)C1CCOCC1 [compound 106]	2020 nM	96.9 nM		20.8
